Laboratory results as given in patent US20140221499A1, “NOVEL RODENT CONTROL AGENTS AND USES THEREOF” (priority 2011, published 2014).

Experiments:
[1] = test system: mouse olfactory sensory neurons; experiment: Confocal calcium imaging of olfactory sensory neurons in tissue slices; type: cell-based
Experimental: The mammalian olfactory system encodes odor identity using combinations of olfactory receptors (11). […] Here, we used a confocal imaging strategy to record cytosolic calcium transients of single sensory neurons in real time. Viability of analyzed neurons was determined after odor exposures by KCl-induced depolarization.
Confocal calcium imaging of olfactory sensory neurons in tissue slices. Recordings were performed as described (Spehr M, et al. (2006) Essential role of the main olfactory system in social recognition of major histocompatibility complex peptide ligands. J Neurosci 26(7):1961-1970) with the following modifications. For calcium sensitive dye loading, slices of olfactory epithelium were incubated (30 min, 4° C.) in HEPES solution (in mM: 145 NaCl, 5 KCl, 1 CaCl2, 1 MgCl2, 10 HEPES; pH=7.3) containing Fluo-4/AM (2 μM; Molecular Probes). Slices were transferred to a recording chamber (Slice Mini Chamber, Luigs & Neumann, Ratingen, Germany) and visualized using a Leica DM6000CFS confocal fixed stage upright microscope (Leica Microsystems, Mannheim, Germany) equipped with an apochromatic water immersion objective (HC X APO L20x/1.0 W) and infrared-optimized differential interference contrast (DIC) optics. Slices were anchored via stainless steel wires with 0.1 mm lycra threads and continuously superfused with HEPES-buffered solution. Changes in cytosolic calcium were monitored over time at 1.0 Hz frame rate. Stimulus application as well as solution exchange during inter-stimulus intervals was achieved by a custom-made, pressure-driven focal application device consisting of a software-controlled valve bank connected to a 7-in-1 ‘perfusion pencil’. Rhodamine application controlled for uniform flow and even stimulus application throughout the epithelial sensory surface. Offline analysis of time-lapse experiments was performed using LAS-AF software (Leica). All cells in a given field of view were marked as individual regions of interest (ROIs), and the relative fluorescence intensity for each ROI was calculated and processed as a function of time.

[2] = target: T1, rTAAR9 (Rattus norvegicus, UniProt Q923Y6); experiment: CRE-SEAP reporter gene assay in HEK293 cells transfected with rTAAR9; type: cell-based; conditions: FIG. 11A, functional with or without 'Rho tag', EC50 ± s.e.m., 4-parameter Hill equation
T1 construct: Full Taar coding regions were cloned into pcDNA3.1; expressed in transfected cells; host or cells: HEK293
T1 sequence (Q923Y6 1-338): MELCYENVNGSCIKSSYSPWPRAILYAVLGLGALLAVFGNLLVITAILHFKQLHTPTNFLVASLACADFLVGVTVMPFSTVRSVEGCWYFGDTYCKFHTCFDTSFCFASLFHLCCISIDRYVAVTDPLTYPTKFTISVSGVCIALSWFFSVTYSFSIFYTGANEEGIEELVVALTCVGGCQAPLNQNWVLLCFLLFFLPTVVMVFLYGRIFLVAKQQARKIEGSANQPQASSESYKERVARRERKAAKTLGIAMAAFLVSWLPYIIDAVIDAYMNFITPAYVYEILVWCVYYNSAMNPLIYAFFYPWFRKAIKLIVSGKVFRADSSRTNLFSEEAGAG
Experimental: FIG. 11 illustrates the dose-dependent responses of TAARs to amines. HEK293 cells were cotransfected with plasmids encoding CRE-SEAP and rTAARs (a) or mTAARs (b), incubated with concentrations of ligands indicated, and assayed for reporter activity (triplicates±s.d.). EC50 values (±s.e.m, bottom right) were calculated using SigmaPlot (Systat Software) and a 4-parameter Hill equation.
The following mixes (10 μM of each indicated compounds) were tested for their ability to activate rat TAARs. Mix 1: butylamine, dibutylamine, hexylamine. Mix 2: 2-aminopentane, isoamylamine, isobutylamine, isopropylamine. Mix 3: N,N-dimethylcyclohexylamine, 1-methylindole, tryptamine, phenylethylamine. Mix 4: indole, 1-methylpyrrolidine, 1-methylpiperidine, pyrrolidine. […]
Full Taar coding regions were cloned into pcDNA3.1-(Invitrogen) with or without a 5′ DNA extension of 69 bp encoding the first 20 amino acids of bovine rhodopsin followed by a cloning linker ([…]). […] Fluorescence was measured on an EnVision plate reader (Perkin Elmer) and SEAP activity graphed as relative fluorescence of a phosphatase substrate.
Here, we set out to identify agonists for additional mouse and rat TAARs. […] Transfected cells were incubated with test chemicals, and phosphatase activity was quantified with a fluorescent substrate as a reporter for TAAR activation. […]

With `NCCc1ccccc1` [2-phenylethylamine] the “activation of olfactory sensory neurons” value ([1]; dorsal and ventral olfactory epithelium) was “activated a subset of KCl-responsive olfactory sensory neurons”, the “2-phenylethylamine-responsive neurons activated by all four test stimuli” value ([1]; dorsal olfactory epithelium) was 30/52 and the “2-phenylethylamine-responsive neurons distinguishing lion and giraffe urine and not responding to benzylamine” value ([1]; of 2-phenylethylamine-responsive neurons (13/52)) was 25%. For the same molecule, the “2-phenylethylamine-responsive neurons distinguishing lion and giraffe urine and not responding to benzylamine” value ([1]; of all dorsal KCl-responsive neurons (13/1268)) was ~1%.

Molecule `CN(C)C1CCCCC1` [N,N-DIMETHYLCYCLOHEXYLAMINE, N,N-dimethylcyclohexylamine] has an EC50 [2] of 26.6 ± 1.9 µM.
